Assay results reported in ChEMBL document CHEMBL5465560, “Selectivity Literature for EUbOPEN Chemogenomic Library” (2024).
Values belong to the compound of their own block, whether it stands above or below them.

How the values were obtained:
[1] = target: T1, Serine/threonine-protein kinase ULK2 (Homo sapiens) (UniProt Q8IYT8); conditions: at 10 µM
T1 sequence (whole entry): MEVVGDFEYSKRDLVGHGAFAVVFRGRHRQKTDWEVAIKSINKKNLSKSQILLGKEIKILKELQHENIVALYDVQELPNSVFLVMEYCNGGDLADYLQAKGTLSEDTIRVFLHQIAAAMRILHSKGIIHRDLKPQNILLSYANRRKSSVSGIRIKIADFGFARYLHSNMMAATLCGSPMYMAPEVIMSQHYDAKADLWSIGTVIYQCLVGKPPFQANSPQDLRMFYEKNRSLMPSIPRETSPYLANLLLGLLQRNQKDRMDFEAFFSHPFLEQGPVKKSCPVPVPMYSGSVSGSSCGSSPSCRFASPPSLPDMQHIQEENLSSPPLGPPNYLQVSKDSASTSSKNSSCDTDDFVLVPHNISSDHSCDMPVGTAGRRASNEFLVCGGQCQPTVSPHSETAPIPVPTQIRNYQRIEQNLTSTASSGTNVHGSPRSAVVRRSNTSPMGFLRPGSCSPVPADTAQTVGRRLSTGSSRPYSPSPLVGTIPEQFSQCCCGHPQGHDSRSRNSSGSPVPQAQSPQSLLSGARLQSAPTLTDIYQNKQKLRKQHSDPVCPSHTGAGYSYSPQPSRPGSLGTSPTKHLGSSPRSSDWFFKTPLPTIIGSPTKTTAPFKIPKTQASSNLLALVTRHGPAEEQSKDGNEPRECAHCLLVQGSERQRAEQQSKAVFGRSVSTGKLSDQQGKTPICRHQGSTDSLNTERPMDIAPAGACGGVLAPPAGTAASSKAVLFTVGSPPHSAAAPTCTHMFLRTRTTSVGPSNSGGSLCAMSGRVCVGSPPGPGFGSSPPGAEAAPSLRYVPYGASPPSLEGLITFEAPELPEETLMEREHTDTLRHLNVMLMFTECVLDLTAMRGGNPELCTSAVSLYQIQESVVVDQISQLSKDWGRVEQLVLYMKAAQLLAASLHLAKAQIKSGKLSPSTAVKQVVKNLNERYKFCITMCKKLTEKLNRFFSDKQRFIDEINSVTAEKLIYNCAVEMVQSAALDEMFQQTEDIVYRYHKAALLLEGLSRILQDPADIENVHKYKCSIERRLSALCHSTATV

[2] = target: Bone morphogenetic protein receptor type-1B (Homo sapiens, UniProt O00238); conditions: at 10 µM
Chain of Bone morphogenetic protein receptor type-1B (O00238 whole entry): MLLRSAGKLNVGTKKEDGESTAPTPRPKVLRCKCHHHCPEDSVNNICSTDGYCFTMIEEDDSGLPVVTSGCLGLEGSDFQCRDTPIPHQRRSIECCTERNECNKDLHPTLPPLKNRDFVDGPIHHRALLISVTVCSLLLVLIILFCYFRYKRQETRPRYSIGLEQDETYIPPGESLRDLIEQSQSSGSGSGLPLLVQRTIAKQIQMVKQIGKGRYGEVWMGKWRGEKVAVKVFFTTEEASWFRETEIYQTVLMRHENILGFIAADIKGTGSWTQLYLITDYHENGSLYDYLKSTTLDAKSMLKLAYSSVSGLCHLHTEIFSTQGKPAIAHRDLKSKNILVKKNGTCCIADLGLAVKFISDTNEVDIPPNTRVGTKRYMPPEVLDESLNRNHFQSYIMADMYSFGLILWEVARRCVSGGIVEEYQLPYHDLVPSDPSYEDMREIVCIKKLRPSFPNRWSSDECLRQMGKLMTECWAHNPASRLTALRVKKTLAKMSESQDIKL

[3] = target: T2, Serine/threonine-protein kinase Sgk2 (Homo sapiens) (UniProt Q9HBY8); assay: Selectivity interaction (KinomeScan (DiscoverX)) EUB0001049a SGK2; conditions: at 1 µM
T2 sequence (whole entry): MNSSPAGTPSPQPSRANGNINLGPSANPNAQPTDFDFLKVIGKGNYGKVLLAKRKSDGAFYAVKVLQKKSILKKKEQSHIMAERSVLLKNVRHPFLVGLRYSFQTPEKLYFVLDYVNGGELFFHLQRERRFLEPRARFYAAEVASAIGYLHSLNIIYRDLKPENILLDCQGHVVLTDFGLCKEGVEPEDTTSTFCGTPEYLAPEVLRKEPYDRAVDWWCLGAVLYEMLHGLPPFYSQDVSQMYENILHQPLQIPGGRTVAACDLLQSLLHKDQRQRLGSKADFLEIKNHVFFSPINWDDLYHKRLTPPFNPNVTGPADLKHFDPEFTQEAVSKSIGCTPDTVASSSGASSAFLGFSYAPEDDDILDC

[4] = target: T3, Rhodopsin kinase GRK1 (Homo sapiens) (UniProt Q15835); assay: Selectivity interaction (Ambit KINOMEscan and KiNATiv profiling in Jurkat cells) EUB0000090b GRK1; type: cell-based; conditions: at 1 µM
T3 sequence (whole entry): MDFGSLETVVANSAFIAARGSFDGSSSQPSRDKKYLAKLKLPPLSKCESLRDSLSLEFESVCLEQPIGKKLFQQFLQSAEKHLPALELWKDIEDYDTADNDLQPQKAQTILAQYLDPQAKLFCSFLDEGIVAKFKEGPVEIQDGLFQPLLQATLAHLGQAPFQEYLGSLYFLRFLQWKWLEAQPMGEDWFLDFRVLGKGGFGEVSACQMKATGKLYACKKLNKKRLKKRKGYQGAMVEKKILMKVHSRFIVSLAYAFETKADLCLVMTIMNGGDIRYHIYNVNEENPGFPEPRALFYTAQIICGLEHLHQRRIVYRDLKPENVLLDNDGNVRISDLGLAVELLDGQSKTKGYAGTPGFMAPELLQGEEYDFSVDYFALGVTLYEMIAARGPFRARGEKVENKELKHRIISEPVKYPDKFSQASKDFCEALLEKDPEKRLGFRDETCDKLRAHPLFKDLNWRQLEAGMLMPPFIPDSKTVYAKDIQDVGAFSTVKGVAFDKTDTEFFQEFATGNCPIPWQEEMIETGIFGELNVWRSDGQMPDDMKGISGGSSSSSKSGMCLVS

[5] = target: Interferon-induced, double-stranded RNA-activated protein kinase (Homo sapiens) (UniProt P19525); assay: Selectivity interaction (ActivX KiNativ screen (kinase selectivity in THP-1 cell lysates)) EUB0000639a EIF2AK2; type: subcellular; conditions: lysate, at 0.04 µM
Chain of Interferon-induced, double-stranded RNA-activated protein kinase (Homo sapiens) (P19525 whole entry): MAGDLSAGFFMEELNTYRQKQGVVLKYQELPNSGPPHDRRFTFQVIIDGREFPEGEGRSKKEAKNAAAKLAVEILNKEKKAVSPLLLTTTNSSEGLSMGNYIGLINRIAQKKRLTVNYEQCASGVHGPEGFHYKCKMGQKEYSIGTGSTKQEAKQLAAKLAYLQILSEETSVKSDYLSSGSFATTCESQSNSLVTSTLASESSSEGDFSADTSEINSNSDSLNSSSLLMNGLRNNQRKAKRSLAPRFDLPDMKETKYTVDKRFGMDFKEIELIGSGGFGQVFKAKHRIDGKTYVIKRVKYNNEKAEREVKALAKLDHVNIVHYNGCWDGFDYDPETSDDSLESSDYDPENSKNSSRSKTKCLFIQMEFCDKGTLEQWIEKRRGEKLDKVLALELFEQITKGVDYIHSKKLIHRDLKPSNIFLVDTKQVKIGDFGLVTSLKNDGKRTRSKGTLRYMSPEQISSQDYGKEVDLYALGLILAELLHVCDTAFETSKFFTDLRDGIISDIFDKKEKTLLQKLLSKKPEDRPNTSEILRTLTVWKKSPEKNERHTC

[6] = target: Dual specificity mitogen-activated protein kinase kinase 2 (Homo sapiens) (UniProt P36507); assay: Selectivity interaction (Kinase panel (Z-LYTE Assay)) EUB0001632a MAP2K2; conditions: at 10 µM
Chain of Dual specificity mitogen-activated protein kinase kinase 2 (Homo sapiens) (P36507 whole entry): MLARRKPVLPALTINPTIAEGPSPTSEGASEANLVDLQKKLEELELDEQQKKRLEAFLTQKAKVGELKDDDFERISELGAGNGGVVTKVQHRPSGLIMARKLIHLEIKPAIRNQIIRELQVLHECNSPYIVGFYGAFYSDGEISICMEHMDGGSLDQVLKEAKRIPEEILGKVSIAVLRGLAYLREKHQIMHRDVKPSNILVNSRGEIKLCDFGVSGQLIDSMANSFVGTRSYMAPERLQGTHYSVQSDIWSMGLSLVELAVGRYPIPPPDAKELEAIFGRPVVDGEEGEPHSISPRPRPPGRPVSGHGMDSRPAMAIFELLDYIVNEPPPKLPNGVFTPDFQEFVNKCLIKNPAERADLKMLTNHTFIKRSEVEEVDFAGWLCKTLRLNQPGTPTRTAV

[7] = target: Mitogen-activated protein kinase kinase kinase 20 (Homo sapiens) (UniProt Q9NYL2); assay: Selectivity interaction (KinomeScan (DiscoverX)) EUB0000092b MAP3K20; conditions: at 10 µM
Chain of Mitogen-activated protein kinase kinase kinase 20 (Homo sapiens) (Q9NYL2 2-800 limits assumed): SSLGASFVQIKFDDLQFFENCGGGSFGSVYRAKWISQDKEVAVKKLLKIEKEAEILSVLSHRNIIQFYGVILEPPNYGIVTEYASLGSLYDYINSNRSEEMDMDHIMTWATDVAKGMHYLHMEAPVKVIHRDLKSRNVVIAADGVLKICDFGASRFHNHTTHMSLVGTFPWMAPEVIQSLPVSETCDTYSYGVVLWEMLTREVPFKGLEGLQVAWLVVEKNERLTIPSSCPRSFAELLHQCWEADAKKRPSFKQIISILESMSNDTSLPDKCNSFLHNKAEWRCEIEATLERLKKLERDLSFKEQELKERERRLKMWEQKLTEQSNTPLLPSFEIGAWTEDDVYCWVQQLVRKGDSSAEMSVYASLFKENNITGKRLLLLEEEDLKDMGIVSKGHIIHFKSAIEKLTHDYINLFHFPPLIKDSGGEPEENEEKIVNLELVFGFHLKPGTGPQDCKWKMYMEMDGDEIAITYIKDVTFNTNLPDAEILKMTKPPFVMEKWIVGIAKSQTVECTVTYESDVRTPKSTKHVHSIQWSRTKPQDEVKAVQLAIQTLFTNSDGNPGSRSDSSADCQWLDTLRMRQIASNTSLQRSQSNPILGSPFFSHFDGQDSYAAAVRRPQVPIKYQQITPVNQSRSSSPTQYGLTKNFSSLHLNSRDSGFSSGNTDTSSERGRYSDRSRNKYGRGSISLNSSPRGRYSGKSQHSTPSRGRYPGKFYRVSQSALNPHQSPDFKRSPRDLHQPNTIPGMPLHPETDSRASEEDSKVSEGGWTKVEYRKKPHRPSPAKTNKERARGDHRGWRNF

[8] = target: Maternal embryonic leucine zipper kinase (Homo sapiens) (UniProt Q14680); assay: Selectivity interaction (KinomeScan (DiscoverX)) EUB0000045b MELK
Chain of Maternal embryonic leucine zipper kinase (Homo sapiens) (Q14680 whole entry, looked up, canonical isoform): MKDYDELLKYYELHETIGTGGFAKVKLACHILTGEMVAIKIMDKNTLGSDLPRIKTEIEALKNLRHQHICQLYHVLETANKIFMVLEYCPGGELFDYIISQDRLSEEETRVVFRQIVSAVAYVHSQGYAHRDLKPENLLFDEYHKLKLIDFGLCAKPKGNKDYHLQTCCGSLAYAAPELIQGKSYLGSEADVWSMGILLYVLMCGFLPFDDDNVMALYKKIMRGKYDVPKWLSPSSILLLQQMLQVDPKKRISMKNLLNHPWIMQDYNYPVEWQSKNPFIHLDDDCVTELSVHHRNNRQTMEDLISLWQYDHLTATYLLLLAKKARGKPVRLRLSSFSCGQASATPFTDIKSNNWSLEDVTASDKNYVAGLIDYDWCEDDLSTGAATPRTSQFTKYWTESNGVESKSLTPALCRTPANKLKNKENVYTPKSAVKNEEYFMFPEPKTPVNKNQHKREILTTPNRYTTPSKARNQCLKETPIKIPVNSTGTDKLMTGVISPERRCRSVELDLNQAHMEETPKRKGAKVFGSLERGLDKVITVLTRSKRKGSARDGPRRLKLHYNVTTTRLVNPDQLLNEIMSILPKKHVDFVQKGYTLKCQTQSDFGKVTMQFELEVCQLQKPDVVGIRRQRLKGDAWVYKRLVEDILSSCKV

[9] = target: T4, Phosphorylase b kinase gamma catalytic chain, liver/testis isoform (Homo sapiens) (UniProt P15735); assay: Selectivity interaction (KinomeScan (DiscoverX)) EUB0000655a PHKG2; conditions: at 10 µM
T4 sequence (whole entry): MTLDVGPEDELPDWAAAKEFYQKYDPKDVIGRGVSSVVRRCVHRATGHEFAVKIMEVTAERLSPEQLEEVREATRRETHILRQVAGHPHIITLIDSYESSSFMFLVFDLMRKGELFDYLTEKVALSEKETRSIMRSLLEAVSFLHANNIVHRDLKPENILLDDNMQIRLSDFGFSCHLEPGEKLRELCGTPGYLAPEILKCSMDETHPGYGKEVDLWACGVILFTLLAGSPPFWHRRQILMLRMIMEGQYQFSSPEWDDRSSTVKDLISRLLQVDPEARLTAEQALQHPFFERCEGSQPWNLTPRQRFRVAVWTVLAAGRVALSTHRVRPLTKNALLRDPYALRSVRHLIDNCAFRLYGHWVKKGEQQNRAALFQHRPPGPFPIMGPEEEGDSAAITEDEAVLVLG

Compound: Cc1cc([C@@H](C)Nc2ccccc2C(=O)O)c2nc(N3CCOCC3)cc(=O)n2c1 [AZD-6482]
% of control [1]: 100%
% of control [2]: 97%

Compound: COc1cc(Nc2nc(C)cc(-c3cnn4nc(OC)ccc34)n2)cc(C(F)(F)F)c1
% of control [3]: 78%

Compound: CN(C)C/C=C/C(=O)Nc1ccc(C(=O)N2CCCC(Nc3ncc(Cl)c(-c4c[nH]c5ccccc45)n3)C2)cc1 (stereo not given)
% of control [4]: 57%

% of inhibition [5]: 3.1%
Compound: CC[C@@H]1[C@H](F)C(=O)N[C@@H]1COc1nccc2cc(C(N)=O)c(OC)cc12 [ZIMLOVISERTIB]

% of control [6]: 3.34%
Compound: Cn1cc(-n2cnc3c(NCc4nc5cc(Cl)c(Cl)cc5[nH]4)nc(N4CCOCC4)nc32)cn1

Compound: CCC(=O)N1CCN(c2ccc(-n3c(=O)ccc4cnc5ccc(-c6cnc7ccccc7c6)cc5c43)cc2C(F)(F)F)CC1
% of control [7]: 22%

Compound: C=CC(=O)Nc1cc(-n2c(=O)ccc3cnc4ccc(-c5ccc(NS(C)(=O)=O)cc5)cc4c32)ccc1C
% of control ([8]; at 1 µM): 100%
% of control ([8]; at 10 µM): 75%

Compound: CN(C)CCOc1ccc(-c2nc(-c3ccncc3)c(-c3ccc4c(c3)CC/C4=N\O)[nH]2)cc1
% of control [9]: 100%
